One data set concerns E. coli (BW25113). The data set can be described thus: 50% growth inhibitory concentration (IC50) determination assay, E. coli. The conditions noted are these: Escherichia coli, growth inhibition, Iso-Sensitest broth, OD 600 nm over 16 h, 35±2° C., read-out: IC50 (μM) E. coli K12 BW25113. The format is cell-based. On the procedure:
(§1) The in vitro antimicrobial activity of the compounds against E. coli (BW25113, obtained from Coli Genetic Stock Center, #7636) and K. pneumoniae (ATCC10031) was determined according to the following procedure:
(§2) The assay used a 10-points Iso-Sensitest broth medium to measure quantitatively the in vitro activity of the compounds against E. coli BW25113 and K. pneumoniae ATCC 10031.
(§3) Stock compounds in DMSO were serially two-fold diluted (range from 50 to 0.097 μM final concentration) in 384 wells microtiter plates and inoculated with 49 μL the bacterial suspension in Iso-Sensitest broth medium to have a final cell concentration of ˜5×10^5 CFU/mL in a final volume/well of 50 μL/well. Microtiter plates were incubated at 35±2° C.
(§4) Bacterial cell growth was determined with the measurement of optical density at k=600 nm each 20 minutes over a time course of 16 h.
(§5) Growth inhibition was calculated during the logarithmic growth of the bacterial cells with determination of the concentration inhibiting 50% (IC50) of the growth.

Data set [1] concerns K. pneumoniae (ATCC10031). The data set can be described thus: 50% growth inhibitory concentration (IC50) determination assay, K. pneumoniae. Format: cell-based. The following applies: Klebsiella pneumoniae, growth inhibition, Iso-Sensitest broth, OD 600 nm over 16 h, * = detection limit. How it is done:
as §1, §2, §3, §4, §5

A further data set has as its system E. coli (ATCC 25922). The data set can be described thus: Minimal Inhibitory Concentration (MIC) assay. The format is cell-based. The following applies: Escherichia coli, read-out: MIC (μg/mL) E. coli ATCC 25922. On the procedure: The in vitro potency of compounds to inhibit E. coli (ATCC 25922) growth was assessed by MIC (Minimal Inhibitory Concentration) assay. Samples were prepared from 10 mM DMSO stock solutions. After serial 2-fold dilution in DMSO in a master plate (Greiner, Cat No: 651201), 180 μL sterile distilled water was added to 20 μL each aliquot of the samples. Then […], diluted compounds were transferred into a new assay plate (Costar, 3599).
The growth medium […] Mueller Hinton Broth (CAMHB) was prepared by adding the 20 mg per liter CaCl2) and 20 mg per liter MgCl2 into the MHB medium (Jianglai Company, sterilized).
Vials of each of the test microorganisms were maintained frozen in the vapor phase of a liquid nitrogen freezer. Took out the bacteria E. coli ATCC 25922 (KWIKSTIK, 0335K) from liquid nitrogen freezer, thawed it in room temperature, and diluted the bacterial in the CAMHB medium to achieve a final inoculum of 5×10^5 CFU/mL. 90 μL CAMHB with bacteria was dispensed to the assay plate and pipetted 5 times.
Then the assay plates were incubated for 20 hours at 35° C. in ambient air. Following incubation, the MIC (μg/mL), the lowest concentration of drug that inhibits visible growth of the microorganism was read and recorded throw the microscope.

Data set [2] can be described thus: Lyophilisation solubility assay (LYSA). The following applies: aqueous buffer, thermodynamic from solid; 0.05 M phosphate buffer, pH 6.5; * = detection limit. Format: physicochemical. How it is done: The solubility of compounds of present invention was assessed by LYSA assay. Samples were prepared in duplicate from 10 mM DMSO stock solutions (20 μL) diluted in 30 μL pure DMSO. After evaporation of DMSO with a centrifugal vacuum evaporator, the residue was dissolved in 0.05 M phosphate buffer (150 μL, pH 6.5), stirred for one hour and shook for two hours. After one night, the solution was filtered using a microtiter filter plate. Then the filtrate and its 1/10 dilution were analyzed by HPLC-UV. In addition, a four-point calibration curve was prepared from the 10 mM stock solutions and used for the solubility determination of the compounds.

Setting [3] is: ATCC25922, CAMHB, 20 hours at 35° C.

Converted amounts (≈) assume the structure as drawn. Where two headings read alike, the source gives them in different places. Bounds are passed on as bounds.

With `CNc1cc(F)c(F)c2c1[nH]c1ncc(-c3cc(C)c4ncc(C(=O)O)c(=O)n4c3)c(N(C)C)c12` [Example 1.02, 7-[4-(Dimethylamino)-5,6-difluoro-8-(methylamino)-9H-pyrido[2,3-b]indol-3-yl]-9-methyl-4-oxo-pyrido[1,2-a]pyrimidine-3-carboxylic acid], the IC50 in the data set with E. coli (BW25113) was 0.262 µM; in data set [1], ≤ 0.098 µM. Moreover, in the data set on E. coli (ATCC 25922) (setting [3]), the MIC was 0.598 µg/mL (≈ 1.25 µM).
The matching figures for `CNc1cc(F)c(F)c2c1[nH]c1ncc(-c3cc(N4CCOCC4)c4ncc(C(=O)O)c(=O)n4c3)c(N(C)C)c12` [Example 1.06, 7-[4-(Dimethylamino)-5,6-difluoro-8-(methylamino)-9H-pyrido[2,3-b]indol-3-yl]-9-morpholino-4-oxo-pyrido[1,2-a]pyrimidine-3-carboxylic acid]: 0.828 µM, 0.187 µM and 0.122 µg/mL (≈ 0.222 µM).
For `CNc1cc(F)c(F)c2c1[nH]c1ncc(-c3cc(N4CCOCC4)c4ncc(C(=O)O)c(=O)n4c3)c(N3CCCC3)c12` [Example 1.07, 7-[5,6-Difluoro-8-(methylamino)-4-pyrrolidin-1-yl-9H-pyrido[2,3-b]indol-3-yl]-9-morpholino-4-oxo-pyrido[1,2-a]pyrimidine-3-carboxylic acid], in that order: 0.885 µM, 0.319 µM and 0.0911 µg/mL (≈ 0.158 µM).
`CNc1cc(F)c(F)c2c1[nH]c1ncc(-c3ccc4ncc(C(=O)O)c(=O)n4c3)c(N3CCC4CN(C)CC43)c12` (stereo not drawn) [Example 1.08, 7-[5,6-Difluoro-4-(5-methyl-2,3,3a,4,6,6a-hexahydropyrrolo[2,3-c]pyrrol-1-yl)-8-(methylamino)-9H-pyrido[2,3-b]indol-3-yl]-4-oxo-pyrido[1,2-a]pyrimidine-3-carboxylic acid] returned a thermodynamic solubility in data set [2] of 60 µg/mL (≈ 110 µM).
`CNc1cc(F)c(F)c2c1[nH]c1ncc(-c3cc(CN(C)C)c4ncc(C(=O)O)c(=O)n4c3)c(N3CCCC3)c12` [Example 1.15, 7-(5,6-Difluoro-8-(methylamino)-4-(pyrrolidin-1-yl)-9H-pyrido[2,3-b]indol-3-yl)-9-((dimethylamino)methyl)-4-oxo-4H-pyrido[1,2-a]pyrimidine-3-carboxylic acid]: the IC50 in the data set with E. coli (BW25113) was 0.663 µM; in data set [1], ≤ 0.098 µM. In the data set with E. coli (ATCC 25922) (setting [3]), the MIC was 0.152 µg/mL (≈ 0.278 µM). Further, the thermodynamic solubility in data set [2] worked out at 19 µg/mL (≈ 34.7 µM).
In the case of `CNc1cc(Cl)cc2c1[nH]c1ncc(-c3ccc4ncc(C(=O)O)c(=O)n4c3)c(N(C)C)c12` [Example 1.16, 7-(6-Chloro-4-(dimethylamino)-8-(methylamino)-9H-pyrido[2,3-b]indol-3-yl)-4-oxo-4H-pyrido[1,2-a]pyrimidine-3-carboxylic acid], the values for the IC50 (in the data set on E. coli (BW25113); in data set [1]) were 1.97 µM and 0.183 µM, respectively. The MIC in the data set on E. coli (ATCC 25922) (setting [3]) came out at 0.169 µg/mL (≈ 0.365 µM).
Take `CNc1c(F)cc(F)c2c1[nH]c1ncc(-c3ccc4ncc(C(=O)O)c(=O)n4c3)c(N(C)C)c12` [Example 1.17, 7-(4-(Dimethylamino)-5,7-difluoro-8-(methylamino)-9H-pyrido[2,3-b]indol-3-yl)-4-oxo-4H-pyrido[1,2-a]pyrimidine-3-carboxylic acid]: the IC50 was 0.497 µM in the data set with E. coli (BW25113) and ≤ 0.098 µM in data set [1]. Also, the MIC in the data set with E. coli (ATCC 25922) (setting [3]) is 0.0847 µg/mL (≈ 0.182 µM). Moreover, in data set [2], the solubility (thermodynamic) amounted to 60 µg/mL (≈ 129 µM).
As to `CNc1cc(F)c(F)c2c1[nH]c1ncc(-c3ccc4ncc(C(=O)O)c(=O)n4c3)c(N3CCC(CN(C)CC(F)F)C3)c12` (stereo not drawn) [Example 1.20, 7-(4-(3-(((2,2-Difluoroethyl)(methyl)amino)methyl)pyrrolidin-1-yl)-5,6-difluoro-8-(methylamino)-9H-pyrido [2,3-b]indol-3-yl)-4-oxo-4H-pyrido[1,2-a]pyrimidine-3-carboxylic acid], in the data set on E. coli (ATCC 25922) (setting [3]), the MIC stood at 0.0707 µg/mL (≈ 0.118 µM). The compound also registered a thermodynamic solubility in data set [2] of 165 µg/mL (≈ 276 µM).
As for `CNc1cc(F)c(F)c2c1[nH]c1ncc(-c3ccc4ncc(C(=O)O)c(=O)n4c3)c(N3CC(CN(C)C)C(F)(F)C3)c12` (stereo not drawn) [Example 1.22, 7-[4-[4-[(dimethylamino)methyl]-3,3-difluoro-pyrrolidin-1-yl]-5,6-difluoro-8-(methylamino)-9H-pyrido[2,3-b]indol-3-yl]-4-oxo-pyrido[1,2-a]pyrimidine-3-carboxylic acid], in data set [2], the thermodynamic solubility was found to be 65 µg/mL (≈ 111 µM).
Consider `CNc1cc(F)c(Cl)c2c1[nH]c1ncc(-c3ccc4ncc(C(=O)O)c(=O)n4c3)c(N(C)C)c12` [Example 1.23, 7-(5-Chloro-4-(dimethylamino)-6-fluoro-8-(methylamino)-9H-pyrido[2,3-b]indol-3-yl)-4-oxo-4H-pyrido[1,2-a]pyrimidine-3-carboxylic acid], for which the IC50 was 0.458 µM with E. coli (BW25113) and ≤ 0.098 µM in data set [1]. In addition, the MIC with E. coli (ATCC 25922) (setting [3]) was determined as 0.0871 µg/mL (≈ 0.181 µM).
In the case of `CNc1cc(F)cc2c1[nH]c1ncc(-c3ccc4ncc(C(=O)O)c(=O)n4c3)c(N3CCC(c4ccccc4)C3)c12` (stereo not drawn) [Example 1.25, 7-(6-Fluoro-8-(methylamino)-4-(3-phenylpyrrolidin-1-yl)-9H-pyrido[2,3-b]indol-3-yl)-4-oxo-4H-pyrido[1,2-a]pyrimidine-3-carboxylic acid], the MIC with E. coli (ATCC 25922) (setting [3]) came to 0.697 µg/mL (≈ 1.27 µM).
Regarding `CNc1c(F)c(F)cc2c1[nH]c1ncc(-c3ccc4ncc(C(=O)O)c(=O)n4c3)c(N3CC[C@@H](N(C)C)C3)c12` [Example 1.27, (R)-7-(4-(3-(Dimethylamino)pyrrolidin-1-yl)-6,7-difluoro-8-(methylamino)-9H-pyrido[2,3-b]indol-3-yl)-4-oxo-4H-pyrido[1,2-a]pyrimidine-3-carboxylic acid], in the data set on E. coli (ATCC 25922) (setting [3]), the MIC stood at 0.759 µg/mL (≈ 1.42 µM). This compound yielded a solubility (thermodynamic) in data set [2] of 31 µg/mL (≈ 58.1 µM).
For `CNc1cc(F)c(F)c2c1[nH]c1ncc(-c3ccc4ncc(C(=O)O)c(=O)n4c3)c(N3CCN4CCOCC4C3)c12` (stereo not drawn) [Example 1.28, 7-(5,6-Difluoro-4-(hexahydropyrazino[2,1-c][1,4]oxazin-8(1H)-yl)-8-(methylamino)-9H-pyrido[2,3-b]indol-3-yl)-4-oxo-4H-pyrido[1,2-a]pyrimidine-3-carboxylic acid compound with formic acid], in the data set on E. coli (ATCC 25922) (ATCC25922, 20 h), the MIC worked out at 0.356 µg/mL (≈ 0.634 µM).
`CNc1cc(F)c(F)c2c1[nH]c1ncc(-c3cc(N4CCOCC4)c4ncc(C(=O)O)c(=O)n4c3)c(N(C)C)c12` [Example 1.32, 7-[4-(Dimethylamino)-5,6-difluoro-8-(methylamino)-9H-pyrido[2,3-b]indol-3-yl]-9-morpholino-4-oxo-pyrido[1,2-a]pyrimidine-3-carboxylic acid] displayed a thermodynamic solubility in data set [2] of 43 µg/mL (≈ 78.2 µM).
As for `CNc1cc(F)c(F)c2c1[nH]c1ncc(-c3cc(C)c4ncc(C(=O)O)c(=O)n4c3)c(N3CCC4CN(C)CC43)c12` (stereo not drawn) [Example 1.33, 7-[5,6-Difluoro-4-(5-methyl-2,3,3a,4,6,6a-hexahydropyrrolo[2,3-c]pyrrol-1-yl)-8-(methylamino)-9H-pyrido[2,3-b]indol-3-yl]-9-methyl-4-oxo-pyrido[1,2-a]pyrimidine-3-carboxylic acid], the MIC in the data set on E. coli (ATCC 25922) (setting [3]) is 0.164 µg/mL (≈ 0.293 µM). In data set [2], this compound came in with a thermodynamic solubility of 275 µg/mL (≈ 491 µM).
`CNc1cc(F)c(F)c2c1[nH]c1ncc(-c3cc(CN4CCC5CN(C)CC54)c4ncc(C(=O)O)c(=O)n4c3)c(N(C)C)c12` (stereo not drawn) [Example 2.06, 7-[4-(Dimethylamino)-5,6-difluoro-8-(methylamino)-9H-pyrido[2,3-b]indol-3-yl]-9-[(5-methyl-2,3,3a,4,6,6a-hexahydropyrrolo[2,3-c]pyrrol-1-yl)methyl]-4-oxo-pyrido[1,2-a]pyrimidine-3-carboxylic acid]: the MIC with E. coli (ATCC 25922) (setting [3]) stood at 0.84 µg/mL (≈ 1.39 µM). Moreover, in data set [2], the solubility (thermodynamic) was > 840 µg/mL.
As for `CNc1cc(F)c(F)c2c1[nH]c1ncc(-c3cc(C)c4ncc(C(=O)O)c(=O)n4c3)c(C3CC3)c12` [Example 3.01, 7-[4-Cyclopropyl-5,6-difluoro-8-(methylamino)-9H-pyrido[2,3-b]indol-3-yl]-9-methyl-4-oxo-pyrido[1,2-a]pyrimidine-3-carboxylic Acid], the IC50 in the data set on E. coli (BW25113) came to 0.808 µM; in data set [1] it was 0.11 µM. The MIC with E. coli (ATCC 25922) (setting [3]) came out at 0.594 µg/mL (≈ 1.25 µM).

The values are drawn from patent publication US20210317141A1, “OXOPYRIDO[1,2-A]PYRIMIDINE COMPOUNDS FOR THE TREATMENT AND PROPHYLAXIS OF BACTERIAL INFECTION” (Hoffmann-La Roche Inc., priority 2018, published 2021).
